Data reported in PubChem BioAssay AID248 (DTP/NCI, 2004).
Where “and” joins values, the source holds several entries; their conditions need not be identical. Equal values may be shown once. Inconclusive results and toxic doses are left out. Rule as the data show it: active = T/C of 150% or more; inactive = T/C below 125%.

Tested on: L1210 leukemia ip in BDF1 mice, survival T/C
Assay: NCI In Vivo Anticancer Drug Screen. Data for tumor model L1210 Leukemia (intraperitoneal) in B6D2F1 (BDF1) mice
Conditions: endpoint: mean survival time, higher = longer survival
How it was run: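 In this screen, tumor-bearing mice given compound are compared to those given vehicle, and their survival values are reported as a treated-to-control quotient.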

Measured: T/C

COC(=O)[C@@]12OC[C@]34[C@H]([C@@H](O)[C@@H]1O)[C@@]1(C)CC(=O)C(O)=C(C)[C@@H]1C[C@H]3OC(=O)[C@H](OC(=O)/C=C(\C)C(C)C)[C@@H]24
inactive: dose: 0.03 mg/kg/injection, schedule: Q01DX009 (ip), vehicle: other 111 % of control | dose: 0.03 mg/kg/injection, schedule: Q01DX009 (ip), vehicle: saline with Tween-80 111 % of control | dose: 0.03 mg/kg/injection, schedule: Q03HX024 (ip), vehicle: other 107 % of control | dose: 0.03 mg/kg/injection, schedule: Q03HX024 (ip), vehicle: saline with Tween-80 108 % of control | dose: 0.06 mg/kg/injection, schedule: Q01DX009 (ip), vehicle: other 111 % of control and 116 % of control | dose: 0.06 mg/kg/injection, schedule: Q01DX009 (ip), vehicle: saline with Tween-80 110 % of control and 120 % of control | dose: 0.06 mg/kg/injection, schedule: Q03HX024 (ip), vehicle: other 107 % of control | dose: 0.06 mg/kg/injection, schedule: Q03HX024 (ip), vehicle: saline with Tween-80 114 % of control | dose: 0.12 mg/kg/injection, schedule: Q01DX009 (ip), vehicle: other 118 % of control and 123 % of control | dose: 0.12 mg/kg/injection, schedule: Q01DX009 (ip), vehicle: saline with Tween-80 117 % of control | dose: 0.12 mg/kg/injection, schedule: Q03HX024 (ip), vehicle: other 121 % of control | dose: 0.12 mg/kg/injection, schedule: Q03HX024 (ip), vehicle: saline with Tween-80 116 % of control | dose: 0.25 mg/kg/injection, schedule: Q01DX009 (ip), vehicle: saline with Tween-80 121 % of control | dose: 0.25 mg/kg/injection, schedule: Q03HX024 (ip), vehicle: other 121 % of control | dose: 0.5 mg/kg/injection, schedule: Q01DX009 (ip), vehicle: other 117 % of control | dose: 0.5 mg/kg/injection, schedule: Q01DX009 (ip), vehicle: saline with Tween-80 123 % of control | dose: 0.6 mg/kg/injection, schedule: Q01DX009 (ip), vehicle: saline + alcohol 96 % of control | dose: 0.8 mg/kg/injection, schedule: Q01DX009 (ip), vehicle: saline + alcohol 112 % of control | dose: 1.0 mg/kg/injection, schedule: Q01DX009 (ip), vehicle: other 122 % of control | dose: 1.3 mg/kg/injection, schedule: Q01DX009 (ip), vehicle: saline + alcohol 114 % of control | dose: 2.0 mg/kg/injection, schedule: Q01DX009 (ip), vehicle: saline + alcohol 123 % of control | dose: 8.0 micrograms/kg/injection, schedule: Q01DX009 (ip), vehicle: saline + alcohol 91 % of control | dose: 16.0 micrograms/kg/injection, schedule: Q01DX009 (ip), vehicle: saline + alcohol 100 % of control | dose: 31.0 micrograms/kg/injection, schedule: Q01DX009 (ip), vehicle: saline + alcohol 109 % of control | dose: 62.0 micrograms/kg/injection, schedule: Q01DX009 (ip), vehicle: saline + alcohol 114 % of control | dose: 250.0 micrograms/kg/injection, schedule: Q01DX009 (ip), vehicle: saline + alcohol 115 % of control | dose: 500.0 micrograms/kg/injection, schedule: Q01DX009 (ip), vehicle: saline + alcohol 114 % of control | dose: 1000.0 micrograms/kg/injection, schedule: Q01DX009 (ip), vehicle: saline + alcohol 120 % of control | dose: 2000.0 micrograms/kg/injection, schedule: Q01DX009 (ip), vehicle: saline + alcohol 117 % of control

CCCCNc1c(C(=O)OCC)c[nH]c(=O)c1C(C)=O
inactive: dose: 100.0 mg/kg/injection, schedule: Q04DX003 (ip), vehicle: Klucel (hydroxypropylcellulose) (HPC) 97 % of control | dose: 200.0 mg/kg/injection, schedule: Q04DX003 (ip), vehicle: Klucel (hydroxypropylcellulose) (HPC) 97 % of control | dose: 400.0 mg/kg/injection, schedule: Q04DX003 (ip), vehicle: Klucel (hydroxypropylcellulose) (HPC) 87 % of control

[N-]=[N+]=NS(=O)(=O)CCc1ccccc1
inactive: dose: 100.0 mg/kg/injection, schedule: Q04DX003 (ip), vehicle: saline with Tween-80 96 % of control | dose: 200.0 mg/kg/injection, schedule: Q04DX003 (ip), vehicle: saline with Tween-80 110 % of control | dose: 400.0 mg/kg/injection, schedule: Q04DX003 (ip), vehicle: saline with Tween-80 98 % of control
